Laboratory results from article PMC4643977, “Negative Feedbacks by Isoprenoids on a Mevalonate Kinase Expressed in the Corpora Allata of Mosquitoes” (PLoS ONE, 2015).

B1: Aedes aegypti mevalonate kinase (AaMVK) (Aedes aegypti) (protein)
chain: MNSLNSFEISAPGKVILHGEHSVVYGKPAIAGPIGLRTYLTYKKLDVPEIILDFASIPFTSKLSLESFNQFLQQHNCHSDMQPLEFLSKLRTSEEFPFAQYVSPQPAQDSTKERYSLGVALYLINRIMRSEGVDALPTKSGFQLTIKSVMSIGAGLGSSAGYGVCVSAGAYVITKLAKGELTVDNALNYSFQGNEPEVLKKISQWAFDSELVMHERPSGIDNTICTYGNLIKFRKGEPFESLKLRQQINILIVDTKVSRTTSKLVANVAALKNKHPKMMESILDAMGHLVDDAVELLEDERDQFEALRTLVAVNNNLLRAIGVSHPSLEKVFQLADSSGFDAKLTGAGGGGCALVFLPKDYESLKEFGVLTGSLTEAGFSWMATTIGGSGVEFKAIE
notes: recombinant His-tagged full-length AaMVK (397 aa) expressed in E. coli

Legend:
[1] = molecular target: T1, Aedes aegypti mevalonate kinase (AaMVK) (Aedes aegypti, UniProt Q176C1); experiment: PK/LDH-coupled spectrophotometric kinase assay, Ki from varied ATP and inhibitor; format: biochemical
T1 construct: gene 5567998; recombinant His-tagged full-length AaMVK (397 aa) expressed in E. coli
T1 sequence (Q176C1 1-397): B1 chain

purified protein = substrate: C[C@@](O)(CCO)CC(=O)O; experiment: purified protein; settings: Mg2+
[2] = substrate: Nc1ncnc2c1ncn2[C@@H]1O[C@H](COP(=O)(O)OP(=O)(O)OP(=O)(O)O)[C@@H](O)[C@H]1O; experiment: Michaelis-Menten kinetics, PK/LDH-coupled assay (Km); format: biochemical, Aedes aegypti; settings: Mg2+

Molecule | Ki [1] | Km (purified protein) | Km [2]
CC(C)=CCC/C(C)=C/CC/C(C)=C/CO[P@@](=O)(O)OP(=O)(O)O (stereo in doubt) [FPP, farnesyl diphosphate] | 440 ± 200 nM |  | 
CC(C)=CCC/C(C)=C/CC/C(C)=C/CC/C(C)=C/COP(=O)(O)OP(=O)(O)O [GGPP, geranyl-geranyl pyrophosphate] | 930 ± 190 nM |  | 
CC(C)=CCC/C(C)=C/COP(=O)(O)OP(=O)(O)O [GPP, geranyl diphosphate] | 550 ± 280 nM |  | 
B1 |  | 90 ± 18 µM | 140 ± 28 µM
